{"source": "paper PMC11882969", "about": "(Nature Communications, 2025)", "biological_target": "hCB2 (Homo sapiens, UniProt P34972)", "sequence (P34972 whole entry)": "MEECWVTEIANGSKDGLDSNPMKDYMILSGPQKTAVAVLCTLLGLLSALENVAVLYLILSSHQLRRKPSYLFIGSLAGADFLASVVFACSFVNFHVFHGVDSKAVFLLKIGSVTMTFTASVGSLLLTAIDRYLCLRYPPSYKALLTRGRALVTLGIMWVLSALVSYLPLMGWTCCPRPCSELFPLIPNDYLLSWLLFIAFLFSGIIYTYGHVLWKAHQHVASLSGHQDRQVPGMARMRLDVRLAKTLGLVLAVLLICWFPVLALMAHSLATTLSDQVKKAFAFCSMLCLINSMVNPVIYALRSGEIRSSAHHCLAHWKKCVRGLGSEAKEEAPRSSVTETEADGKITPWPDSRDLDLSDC", "experiment": "bioSensAll ebBRET signaling profiling, hCB2", "type": "cell-based", "parameters": "host or cells: HEK293SL cells, transient PEI transfection", "settings": "for RE, relative efficacy: vs CP-55,940; for G13 hCB2 / G15 hCB2 / Gq hCB2 / Gs hCB2: raw signal", "key": {"[1]": {"settings": "Log [Compound] (M) not printed (line after -13)"}}, "note": "Values joined by “and” are separate entries in the source; they are usually repeats but may differ in a detail not shown here. Equal entries are not always repeated.", "data": [{"smiles": "COC(=O)[C@@](C)(NC(=O)c1cc(C)n(-c2cccc(C(F)(F)F)c2)n1)c1cccs1", "note": "[‘1350]", "values": [{"measurement": "Barr2+GRK2 hCB2", "setting": "Log [Compound] (M) -4.22186", "value": "44.1172 and 39.7347"}, {"measurement": "Gi1 hCB2", "setting": "Log [Compound] (M) -4.22186", "value": "74.4771 and 77.5324"}, {"measurement": "Gi2 hCB2", "setting": "Log [Compound] (M) -4.22186", "value": 66.5499}, {"measurement": "GoB hCB2", "setting": "Log [Compound] (M) -4.22186", "value": "56.9391 and 70.3563"}, {"measurement": "Gz hCB2", "setting": "Log [Compound] (M) -4.22186", "value": "58.5774 and 64.6863"}, {"measurement": "Barr2+GRK2 hCB2", "setting": "Log [Compound] (M) -4.63927", "value": "32.763 and 29.7899"}, {"measurement": "Gi1 hCB2", "setting": "Log [Compound] (M) -4.63927", "value": "72.942 and 75.6692"}, {"measurement": "Gi2 hCB2", "setting": "Log [Compound] (M) -4.63927", "value": 60.7879}, {"measurement": "GoB hCB2", "setting": "Log [Compound] (M) -4.63927", "value": "56.4664 and 67.1616"}, {"measurement": "Gz hCB2", "setting": "Log [Compound] (M) -4.63927", "value": "78.3049 and 53.5883"}, {"measurement": "Barr2+GRK2 hCB2", "setting": "Log [Compound] (M) -5.05788", "value": "29.8124 and 18.7956"}, {"measurement": "Gi1 hCB2", "setting": "Log [Compound] (M) -5.05788", "value": "74.0429 and 76.6089"}, {"measurement": "Gi2 hCB2", "setting": "Log [Compound] (M) -5.05788", "value": 58.4001}, {"measurement": "GoB hCB2", "setting": "Log [Compound] (M) -5.05788", "value": "54.53 and 64.4448"}, {"measurement": "Gz hCB2", "setting": "Log [Compound] (M) -5.05788", "value": "66.9683 and 41.1092"}, {"measurement": "Barr2+GRK2 hCB2", "setting": "Log [Compound] (M) -5.47381", "value": "34.9292 and 20.8945"}, {"measurement": "Gi1 hCB2", "setting": "Log [Compound] (M) -5.47381", "value": "72.8179 and 79.0878"}, {"measurement": "Gi2 hCB2", "setting": "Log [Compound] (M) -5.47381", "value": 60.2299}, {"measurement": "GoB hCB2", "setting": "Log [Compound] (M) -5.47381", "value": "53.5084 and 63.1367"}, {"measurement": "Gz hCB2", "setting": "Log [Compound] (M) -5.47381", "value": "56.2566 and 45.2442"}, {"measurement": "Barr2+GRK2 hCB2", "setting": "Log [Compound] (M) -5.89285", "value": "30.1859 and 15.2974"}, {"measurement": "Gi1 hCB2", "setting": "Log [Compound] (M) -5.89285", "value": "75.9346 and 71.3757"}, {"measurement": "Gi2 hCB2", "setting": "Log [Compound] (M) -5.89285", "value": 59.8925}, {"measurement": "GoB hCB2", "setting": "Log [Compound] (M) -5.89285", "value": "55.4448 and 59.3006"}, {"measurement": "Gz hCB2", "setting": "Log [Compound] (M) -5.89285", "value": "73.8416 and 43.9289"}, {"measurement": "Barr2+GRK2 hCB2", "setting": "Log [Compound] (M) -6.31878", "value": "31.1196 and 18.9955"}, {"measurement": "Gi1 hCB2", "setting": "Log [Compound] (M) -6.31878", "value": "70.1509 and 73.9032"}, {"measurement": "Gi2 hCB2", "setting": "Log [Compound] (M) -6.31878", "value": 59.7627}, {"measurement": "GoB hCB2", "setting": "Log [Compound] (M) -6.31878", "value": "55.1551 and 56.3448"}, {"measurement": "Gz hCB2", "setting": "Log [Compound] (M) -6.31878", "value": "71.9968 and 45.6141"}, {"measurement": "Barr2+GRK2 hCB2", "setting": "Log [Compound] (M) -6.72585", "value": "25.5172 and 13.5483"}, {"measurement": "Gi1 hCB2", "setting": "Log [Compound] (M) -6.72585", "value": "69.1585 and 77.5649"}, {"measurement": "Gi2 hCB2", "setting": "Log [Compound] (M) -6.72585", "value": 61.5795}, {"measurement": "GoB hCB2", "setting": "Log [Compound] (M) -6.72585", "value": "54.5452 and 57.5649"}, {"measurement": "Gz hCB2", "setting": "Log [Compound] (M) -6.72585", "value": "45.4258 and 40.2871"}, {"measurement": "Barr2+GRK2 hCB2", "setting": "Log [Compound] (M) -7.14267", "value": "30.2979 and 16.2969"}, {"measurement": "Gi1 hCB2", "setting": "Log [Compound] (M) -7.14267", "value": "65.6232 and 81.2265"}, {"measurement": "Gi2 hCB2", "setting": "Log [Compound] (M) -7.14267", "value": 58.2833}, {"measurement": "GoB hCB2", "setting": "Log [Compound] (M) -7.14267", "value": "51.8616 and 63.3506"}, {"measurement": "Gz hCB2", "setting": "Log [Compound] (M) -7.14267", "value": "50.5436 and 34.8285"}, {"measurement": "Barr2+GRK2 hCB2", "setting": "Log [Compound] (M) -7.55284", "value": "26.2642 and 26.7415"}, {"measurement": "Gi1 hCB2", "setting": "Log [Compound] (M) -7.55284", "value": "64.5377 and 66.7095"}, {"measurement": "Gi2 hCB2", "setting": "Log [Compound] (M) -7.55284", "value": 59.5551}, {"measurement": "GoB hCB2", "setting": "Log [Compound] (M) -7.55284", "value": "57.4727 and 58.7094"}, {"measurement": "Gz hCB2", "setting": "Log [Compound] (M) -7.55284", "value": "50.2461 and 38.3305"}, {"measurement": "Barr2+GRK2 hCB2", "setting": "Log [Compound] (M) -8", "value": "20.9979 and 17.0465"}, {"measurement": "Gi1 hCB2", "setting": "Log [Compound] (M) -8", "value": "54.8465 and 52.1925"}, {"measurement": "Gi2 hCB2", "setting": "Log [Compound] (M) -8", "value": 54.4549}, {"measurement": "GoB hCB2", "setting": "Log [Compound] (M) -8", "value": "47.1654 and 53.6784"}, {"measurement": "Barr2+GRK2 hCB2", "setting": "Log [Compound] (M) -8.22186", "value": "23.9859 and 16.2469"}, {"measurement": "Gi1 hCB2", "setting": "Log [Compound] (M) -8.22186", "value": "56.5677 and 32.8473"}, {"measurement": "Gi2 hCB2", "setting": "Log [Compound] (M) -8.22186", "value": 55.2855}, {"measurement": "GoB hCB2", "setting": "Log [Compound] (M) -8.22186", "value": "43.0943 and 48.7228"}, {"measurement": "Gz hCB2", "setting": "Log [Compound] (M) -8.22186", "value": "50.1568 and 46.2389"}, {"measurement": "Gi1 hCB2", "setting": "Log [Compound] (M) -8.39794", "value": "38.2861 and 47.0726"}, {"measurement": "Gi2 hCB2", "setting": "Log [Compound] (M) -8.39794", "value": 44.5921}, {"measurement": "GoB hCB2", "setting": "Log [Compound] (M) -8.39794", "value": "29.1733 and 38.4595"}, {"measurement": "Gi1 hCB2", "setting": "Log [Compound] (M) -8.68787", "value": "27.0908 and 14.9764"}, {"measurement": "Gi2 hCB2", "setting": "Log [Compound] (M) -8.68787", "value": 26.6573}, {"measurement": "GoB hCB2", "setting": "Log [Compound] (M) -8.68787", "value": "22.9675 and 22.9513"}, {"measurement": "Gi2 hCB2", "setting": "Log [Compound] (M) -9.15521", "value": 7.477}, {"measurement": "Gi2 hCB2", "setting": "Log [Compound] (M) -9.61989", "value": -6.111}, {"measurement": "Gi2 hCB2", "setting": "Log [Compound] (M) -10.0969", "value": -9.55}, {"measurement": "Gi2 hCB2", "setting": "Log [Compound] (M) -10.5529", "value": -9.589}, {"measurement": "Gi2 hCB2", "setting": "Log [Compound] (M) -11.0177", "value": -8.914}, {"measurement": "Gi2 hCB2", "setting": "Log [Compound] (M) -11.4949", "value": -12.1971}, {"measurement": "Gi2 hCB2", "setting": "Log [Compound] (M) -11.9208", "value": -11.8078}, {"measurement": "Gi2 hCB2", "setting": "Log [Compound] (M) -12.3979", "value": -13.4949}, {"measurement": "Gi2 hCB2", "setting": "Log [Compound] (M) -12.8861", "value": -11.678}, {"measurement": "Gi2 hCB2", "setting": "Log [Compound] (M) -13", "value": -15.0781}, {"measurement": "Gz hCB2", "setting": "Log [Compound] (M) -13", "value": -3.497}, {"measurement": "Barr2+GRK2 hCB2", "setting": "[1]", "value": -10.739}, {"measurement": "GoB hCB2", "setting": "[1]", "value": 0.1984}, {"measurement": "Gz hCB2", "setting": "[1]", "value": 0.9754}, {"measurement": "pEC50 [95% CI]", "setting": "hCB2 Gi1", "value": "8.45 [8.4 – 8.5]"}, {"measurement": "RE, relative efficacy", "setting": "hCB2 Gi1", "value": 0.29}, {"measurement": "pEC50 [95% CI]", "setting": "hCB2 Gi2", "value": "8.79 [8.7 – 8.9]"}, {"measurement": "RE, relative efficacy", "setting": "hCB2 Gi2", "value": 0.40}, {"measurement": "pEC50 [95% CI]", "setting": "hCB2 GoB", "value": "8.58 [8.5 – 8.7]"}, {"measurement": "RE, relative efficacy", "setting": "hCB2 GoB", "value": 0.40}, {"measurement": "RE, relative efficacy", "setting": "hCB2 Gz", "value": 0.22}, {"measurement": "RE, relative efficacy", "setting": "hCB2 ßarr2+GRK2", "value": 0.92}, {"measurement": "G13 hCB2", "setting": "Log [Compound] (M) -4.22186", "value": 370}, {"measurement": "G15 hCB2", "setting": "Log [Compound] (M) -4.22186", "value": 861}, {"measurement": "Gq hCB2", "setting": "Log [Compound] (M) -4.22186", "value": 1817}, {"measurement": "Gs hCB2", "setting": "Log [Compound] (M) -4.22186", "value": 9372}, {"measurement": "G13 hCB2", "setting": "Log [Compound] (M) -4.63927", "value": 318}, {"measurement": "G15 hCB2", "setting": "Log [Compound] (M) -4.63927", "value": 875}, {"measurement": "Gq hCB2", "setting": "Log [Compound] (M) -4.63927", "value": 1909}, {"measurement": "Gs hCB2", "setting": "Log [Compound] (M) -4.63927", "value": 9159}, {"measurement": "G13 hCB2", "setting": "Log [Compound] (M) -5.05788", "value": 339}]}]}
